Results from ChEMBL document CHEMBL2040799, “Exploring the Requirements for the Hydrophobic Scaffold and Polar Amine in inhibitors of M2 from Influenza A Virus” (ACS Med Chem Lett, 2011).

Experiments:
[1] = tested on: Matrix protein 2 (Influenza A virus), P06821 [V27A]; assay: Inhibition of Influenza A Virus M2 proton channel V27A mutant expressed in Xenopus laevis oocytes at 100 uM after 2 mins by two-electrode patch clamp assay; format: cell-based; details: Oocyte
[2] = tested on: Matrix protein 2 (Influenza A virus), P06821 [withheld]; assay: Inhibition of Influenza A Virus M2 proton channel S31N mutant expressed in Xenopus laevis oocytes at 100 uM after 2 mins by two-electrode patch clamp assay; format: cell-based; details: Oocyte

## C1CC2CC1C1CNCC21 (stereo not given)
[1]
  inhibition: < 15%
[2]
  inhibition: 33%

## NC1Cc2ccccc2C1
[1]
  inhibition: < 15%
[2]
  inhibition: 33%

## O=S(=O)(O)C12CC3CC(CC(C3)C1)C2
[1]
  inhibition: < 15%
[2]
  inhibition: 33%

## CC(C)(C)CC(C)(C)N
[1]
  inhibition: < 15%
[2]
  inhibition: 33%

## NN1C(=O)CC2(CCCCC2)CC1=O
[1]
  inhibition: < 15%
[2]
  inhibition: 33%

## OC1C2C3CC4C1C1C2CC3C41 (stereo not given)
[1]
  inhibition: < 15%
[2]
  inhibition: 33%

## NC1CC2CC1C1CCCC21 (stereo not given)
[1]
  inhibition: < 15%
[2]
  inhibition: 33%

## N=C(NO)C12CC3CC(CC(C3)C1)C2
[1]
  inhibition: < 15%
[2]
  inhibition: 33%

## NC12CC3CCC(CC(C3)C1)C2
[1]
  inhibition: < 15%
[2]
  inhibition: 33%

## CC(C)(C)c1ccc(CN)cc1
[1]
  inhibition: < 15%
[2]
  inhibition: 33%

## CC12CC3(O)CC1(C)CC3(O)C2
[1]
  inhibition: < 15%
[2]
  inhibition: 33%

## C1CCC2(CC1)CCNCC2
[1]
  inhibition: < 15%
[2]
  inhibition: 33%

## NC1CCC2(CCCCC2)CC1
[1]
  inhibition: < 15%
[2]
  inhibition: 33%

## C1CC2CC1C1CNC21 (stereo not given)
[1]
  inhibition: < 15%
[2]
  inhibition: 33%

## NC1C2CC3CC(C2)CC1C3 (stereo not given)
[1]
  inhibition: < 15%
[2]
  inhibition: 33%

## NC1C2C3CC4C1C1C2CC3C41 (stereo not given)
[1]
  inhibition: < 15%
[2]
  inhibition: 33%

## NC12CC3CC(C1)CC(CO)(C3)O2
[1]
  inhibition: < 15%
[2]
  inhibition: 33%

## OC1C2C3CC4C2C(O)C2C1C3C42 (stereo not given)
[1]
  inhibition: < 15%
[2]
  inhibition: 33%

## O=C1CC2(CCCCC2)CC(=O)N1
[1]
  inhibition: < 15%
[2]
  inhibition: 33%

## NC12CC3CC(C1)CC(O)(C3)C2
[1]
  inhibition: < 15%
[2]
  inhibition: 33%

## NC12CC3CC(CC(C3)C1)C2
[1]
  inhibition: 0%
[2]
  inhibition: 35%

## NC1C2C3CC4C2C(O)C2C1C3C42 (stereo not given)
[1]
  inhibition: < 15%
[2]
  inhibition: 33%

## N=C(N)NC12CC3CC(CC(C3)C1)C2
[1]
  inhibition: < 15%
[2]
  inhibition: 33%

## NC12CCC3CC(CC(C3)C1)C2
[1]
  inhibition: < 15%
[2]
  inhibition: 33%

## N=C(N)C12CC3CC(CC(C3)C1)C2
[1]
  inhibition: < 15%
[2]
  inhibition: 33%

## C1NC2CC3CC1CC(C3)C2
[1]
  inhibition: < 15%
[2]
  inhibition: 33%

## OC1CCC(C2CC3CCC2C3)CC1O (stereo not given)
[1]
  inhibition: < 15%
[2]
  inhibition: 33%

## NOC12CC3CC(CC(C3)C1)C2
[1]
  inhibition: < 15%
[2]
  inhibition: 33%

## OC1CC2C3CCC(C3)C2C1O (stereo not given)
[1]
  inhibition: < 15%
[2]
  inhibition: 33%

## NC(=O)C12CC3CC(CC(C3)C1)C2
[1]
  inhibition: < 15%
[2]
  inhibition: 33%

## C1CC2CCC1CNC2
[1]
  inhibition: < 15%
[2]
  inhibition: 33%

## O=C1C2CC3CC(C2)CC1C3
[1]
  inhibition: < 15%
[2]
  inhibition: 33%

## NC(CO)C12CC3CC(CC(C3)C1)C2 (stereo not given)
[1]
  inhibition: 4%
[2]
  inhibition: 15%

## NN1CCC2(CCCCC2)CC1
[1]
  inhibition: < 15%
[2]
  inhibition: 33%

## CC1(O)C2CC3CC(C2)CC1C3 (stereo not given)
[1]
  inhibition: < 15%
[2]
  inhibition: 33%

## CC1(C)C(N)C1(C)C
[1]
  inhibition: < 15%
[2]
  inhibition: 33%

## N=C(N)NC(=N)NC12CC3CC(CC(C3)C1)C2
[1]
  inhibition: < 15%
[2]
  inhibition: 33%

## N=C(N)NCC12CC3CCC(CC(C3)C1)C2
[1]
  inhibition: < 15%
[2]
  inhibition: 33%

## NNC1CCC2(CCCCC2)CC1
[1]
  inhibition: < 15%
[2]
  inhibition: 33%

## OC12CC3CC(CC(C3)C1)C2
[1]
  inhibition: < 15%
[2]
  inhibition: 33%
